Active and inactive are the calls of the source. No cut-off for these calls is given here.
Tested on: MCF7
Assay: Induction of apoptosis in human MCF7 cells at antiproliferative IC50 assessed as late apoptotic cells after 48 hrs by AO/EB dual staining-based fluorescent microscopic analysis
Format: functional, cell-based
Settings: not given

For CC1Oc2c(cc(C(=O)Nc3cccnc3)c3c2C=CC(C)(C)O3)C(=O)C1C (configuration not stated), which Activity is on record?
Its Activity is “Active”.

Tested on: MCF7
Assay: Induction of apoptosis in human MCF7 cells assessed as DNA fragmentation at antiproliferative IC50 after 24 hrs by ethidium bromide staining based agarose gel electrophoresis method
Format: functional, cell-based
Settings: not given

Which Activity does the source give for CC1Oc2c(cc(C(=O)Nc3cccnc3)c3c2C=CC(C)(C)O3)C(=O)C1C (configuration not stated) here?
The Activity was “Active”.

Tested on: MCF7
Assay: Induction of apoptosis in human MCF7 cells assessed as chromatin condensation at antiproliferative IC50 after 24 hrs by hoechst 33258 staining-based fluorescent microscopic analysis
Format: functional, cell-based
Settings: not given

With CC1Oc2c(cc(C(=O)Nc3cccnc3)c3c2C=CC(C)(C)O3)C(=O)C1C (configuration not stated) as the molecule, how does the Activity read?
The Activity was “Active”.

Tested on: not listed separately
Assay: Cytotoxicity against human MCF7 cells assessed as cell growth inhibition after 24 hrs by MTT assay
Format: functional, cell-based
Settings: MCF7, 24 h

With CC1Oc2c(cc(C(=O)Nc3nnc(-c4ccccc4)s3)c3c2C=CC(C)(C)O3)C(=O)C1C (configuration not stated) as the molecule, how does the IC50 read?
The IC50 was 37.8 µM.

For CC1Oc2c(cc(C(=O)Nc3cccc4ccccc34)c3c2C=CC(C)(C)O3)C(=O)C1C (configuration not stated), which IC50 is on record?
Its IC50 is 48.1 µM.

With CC1Oc2c(cc(C(=O)Nc3cccnc3)c3c2C=CC(C)(C)O3)C(=O)C1C (configuration not stated) as the molecule, how does the IC50 read?
Its IC50 is 28.7 µM.

Tested on: MCF7
Assay: Induction of apoptosis in human MCF7 cells assessed as early apoptotic cells at antiproliferative IC50 after 24 hrs by AO/EB dual staining-based fluorescent microscopic analysis
Format: functional, cell-based
Settings: not given

For CC1Oc2c(cc(C(=O)Nc3cccnc3)c3c2C=CC(C)(C)O3)C(=O)C1C (configuration not stated), which Activity is on record?
Its Activity is “Active”.

Tested on: MCF7
Assay: Induction of apoptosis in human MCF7 cells assessed as increase in number of abnormal cells at antiproliferative IC50 by hoechst 33258 staining-based fluorescent microscopic analysis
Format: functional, cell-based
Settings: TDE = time-dependent effect

Which Activity does the source give for CC1Oc2c(cc(C(=O)Nc3cccnc3)c3c2C=CC(C)(C)O3)C(=O)C1C (configuration not stated) here?
Its Activity is “Tde”.

Tested on: not listed separately
Assay: Downregulation of Bcl2 protein expression in human MCF7 cells at antiproliferative IC50 after 24 hrs by Western blot analysis
Format: functional, cell-based
Settings: not given

For CC1Oc2c(cc(C(=O)Nc3cccnc3)c3c2C=CC(C)(C)O3)C(=O)C1C (configuration not stated), which Activity is on record?
The Activity was “Active”.

Tested on: not listed separately
Assay: Cytotoxicity against human HeLa cells assessed as cell growth inhibition after 24 hrs by MTT assay
Format: functional, cell-based
Settings: not given

For CC1Oc2c(cc(C(=O)Nc3nnc(-c4ccccc4)s3)c3c2C=CC(C)(C)O3)C(=O)C1C (configuration not stated), which IC50 is on record?
The IC50 was 40.2 µM.

Which IC50 does the source give for CC1Oc2c(cc(C(=O)Nc3cccc4ccccc34)c3c2C=CC(C)(C)O3)C(=O)C1C (configuration not stated) here?
Its IC50 is 41.7 µM.

With CC1Oc2c(cc(C(=O)Nc3cccnc3)c3c2C=CC(C)(C)O3)C(=O)C1C (configuration not stated) as the molecule, how does the IC50 read?
The IC50 was 41.2 µM.

Tested on: MCF7
Assay: Induction of apoptosis in human MCF7 cells assessed as cytoskeleton breakdown at antiproliferative IC50 after 48 hrs by hoechst 33258 staining-based fluorescent microscopic analysis
Format: functional, cell-based
Settings: not given

Which Activity does the source give for CC1Oc2c(cc(C(=O)Nc3cccnc3)c3c2C=CC(C)(C)O3)C(=O)C1C (configuration not stated) here?
The Activity was “Active”.

Tested on: not listed separately
Assay: Upregulation of Bax protein expression in human MCF7 cells at antiproliferative IC50 after 24 hrs by Western blot analysis
Format: functional, cell-based
Settings: not given

Which Activity does the source give for CC1Oc2c(cc(C(=O)Nc3cccnc3)c3c2C=CC(C)(C)O3)C(=O)C1C (configuration not stated) here?
The Activity was “Active”.

Tested on: MCF7
Assay: Induction of apoptosis in human MCF7 cells assessed as morphological changes at antiproliferative IC50 by AO/EB dual staining-based fluorescent microscopic analysis
Format: functional, cell-based
Settings: TDE = time-dependent effect

Which Activity does the source give for CC1Oc2c(cc(C(=O)Nc3cccnc3)c3c2C=CC(C)(C)O3)C(=O)C1C (configuration not stated) here?
The Activity was “Tde”.

Tested on: MCF7
Assay: Induction of apoptosis in human MCF7 cells assessed as fragmented nuclei at antiproliferative IC50 after 24 hrs by hoechst 33258 staining-based fluorescent microscopic analysis
Format: functional, cell-based
Settings: not given

Which Activity does the source give for CC1Oc2c(cc(C(=O)Nc3cccnc3)c3c2C=CC(C)(C)O3)C(=O)C1C (configuration not stated) here?
Its Activity is “Active”.

Tested on: MCF7
Assay: Induction of apoptosis in human MCF7 cells assessed as presence of apoptotic bodies at antiproliferative IC50 after 24 hrs by hoechst 33258 staining-based fluorescent microscopic analysis
Format: functional, cell-based
Settings: not given

Which Activity does the source give for CC1Oc2c(cc(C(=O)Nc3cccnc3)c3c2C=CC(C)(C)O3)C(=O)C1C (configuration not stated) here?
Its Activity is “Active”.

Tested on: not listed separately
Assay: Hemolytic activity against human RBC at 28.7 uM after 4 hrs
Format: ADME, cell-based
Settings: erythrocyte

With CC1Oc2c(cc(C(=O)Nc3cccnc3)c3c2C=CC(C)(C)O3)C(=O)C1C (configuration not stated) as the molecule, how does the Activity read?
Its Activity is “Non-Toxic”.

Tested on: MCF7
Assay: Induction of apoptosis in human MCF7 cells assessed as plasma membrane blebbing at antiproliferative IC50 after 48 hrs by hoechst 33258 staining-based fluorescent microscopic analysis
Format: functional, cell-based
Settings: not given

With CC1Oc2c(cc(C(=O)Nc3cccnc3)c3c2C=CC(C)(C)O3)C(=O)C1C (configuration not stated) as the molecule, how does the Activity read?
Its Activity is “Active”.

Tested on: not listed separately
Assay: Cytotoxicity against human A549 cells assessed as cell growth inhibition after 24 hrs by MTT assay
Format: functional, cell-based
Settings: A549, 24 h

Which IC50 does the source give for CC1Oc2c(cc(C(=O)Nc3nnc(-c4ccccc4)s3)c3c2C=CC(C)(C)O3)C(=O)C1C (configuration not stated) here?
Its IC50 is 32.4 µM.

With CC1Oc2c(cc(C(=O)Nc3cccc4ccccc34)c3c2C=CC(C)(C)O3)C(=O)C1C (configuration not stated) as the molecule, how does the IC50 read?
The IC50 was 58.1 µM.

With CC1Oc2c(cc(C(=O)Nc3cccnc3)c3c2C=CC(C)(C)O3)C(=O)C1C (configuration not stated) as the molecule, how does the IC50 read?
Its IC50 is 26.9 µM.

Source: ChEMBL document CHEMBL3865802, “Natural product-inspired rational design, synthesis and biological evaluation of 2,3-dihydropyrano[2,3-f]chromen-4(8H)-one based hybrids as potential mitochondrial apoptosis inducers” (Eur J Med Chem, 2016)
